The values that follow are results of earlier work, collected in patent US11446408B2, “Composition and methods for antimicrobial articles” (priority 2011, dated 2022).

Some test systems named below: enteric bacteria; enteric viruses; amoebic cysts.
Common to all, as to conditions: 10 minutes at 25 degrees Celsius

Consider `II` [iodine], for which, in the series with enteric bacteria, the “iodine sufficient to kill enteric bacteria” value is on record as 0.2 PPM. Further, in the series on enteric viruses, the “iodine sufficient to kill enteric viruses” value is given as 14.6 PPM. In addition, the “iodine sufficient to kill amoebic cysts” value in the series with amoebic cysts is 3.5 PPM.
